Reference: patent US12521393B2, “Cytotoxicity targeting chimeras for CCR2-expressing cells” (GLAXOSMITHKLINE INTELLECTUAL PROPERTY DEVELOPMENT LIMITED, priority 2021, dated 2026)

Test system: endogenous target monocytes in human PBMC
Assay: PBMC ex vivo monocyte depletion flow cytometry assay (Example 200)
Format: cell-based
Conditions: with anti-cotinine antibody (SEQ ID NO: 11/12), 18-24 hours, EC50 in molar, read-out: Ex Vivo Depletion Assay pEC50 (converted)
Experimental: A human PBMC (peripheral blood mononuclear cells) monocyte depletion flow cytometry assay was developed to screen compounds in a 384-well plate format. This assay incorporated endogenous natural killer cells to deplete endogenous target monocytes.
To screen compounds in the human PBMC monocyte depletion flow cytometry assay, 11-point dose-response curves were made from 1 mM stocks in neat DMSO by serially diluting an ARM compound of Formula (I) four-fold into a 384-well plate row-wise. These serially diluted compounds were then stamped into a flat bottom polypropylene 384-well plate (Greiner Bio-One) at 100 nL/well. Fifty microliters of 30 μg/mL anti-cotinine antibody having a heavy chain sequence of SEQ ID NO: 11 and a light chain sequence of SEQ ID NO: 12 (rabbit variable region with human IgG1 Fc domain containing a DE mutation (S239D/1332E)) that had been diluted in assay medium (RPMI 1640 (Gibco) containing 10% fetal bovine serum (Gibco), 1% Glutamax (Gibco) and 1% sodium pyruvate (Corning) was added to the wells of the plate. The plate was centrifuged for 1 min at 500 rpm (revolutions per minute) and then shaken for 5 min at room temperature. The plate was incubated for 15 minutes at 37° C./5% CO2.
Frozen PBMC cells (HemaCare BioResearch) were thawed and centrifuged at 1,200 rpm for 4 minutes. The cells were diluted to a cell density of 2×10^6 cells/mL in assay medium. Fifty microliters of the diluted cells were added to the wells of the plate. The plate was centrifuged for 1 min at 500 rpm and incubated for 18-24 hours at 37° C./5% CO2.
After 18-24 hours incubation, 2 μL of 6.25 μg human FC block (BD Pharmingen) that was diluted in assay medium was added to the wells of the plate. The plate was centrifuged for 1 minute at 500 rpm and then incubated at room temperature for 15 minutes. Five microliters of 750 nM Helix NP NIR (Biolegend) that had been diluted in assay medium was added to the wells of the plate. Nine microliters of antibody cocktail containing 1/5 diluted fluorescein isothiocyanate (FITC) labeled anti-CD45 antibody (Beckman Coulter), PC7 labeled anti-CD14 antibody (Beckman Coulter) and phyocoerythrin (PE) anti-CD4 antibody (Beckman Coulter) was then added to the wells of the plate. The plate was centrifuged for 1 min at 500 rpm and incubated for 30 minutes at 4-8° C. Samples from the plate were run on BD FACS Canto II flow cytometer and data was analyzed using FlowJo software.
ARMs compounds of Formula (I) of the invention were tested for the ability to deplete monocytes in the above assay in one or more experimental runs and the results are shown in Table 3 below. Potency of the compounds of the invention is reported as a pEC50 value. The pEC50 value is the negative log of the EC50 value, wherein the EC50 value is the half maximal effective concentration measured in molar (M). For compounds tested in more than one experimental run, the pEC50 value is reported as an average or as the individual values measured

SMILES	EC50 [nM]
CC(C)N(C)[C@@H]1CC[C@H](N2CC[C@H](Nc3ncnc4ccc(C(F)(F)F)cc34)C2=O)[C@H](NC(=O)COCCNC(=O)CNC(=O)COCCOCCNC(=O)[C@H]2CC(=O)N(C)[C@@H]2c2cccnc2)C1 [Example 78, (2S,3S)-N-(1-(((1R,2S,5R)-5-(Isopropyl(methyl)amino)-2-((S)-2-oxo-3-((6-(trifluoromethyl)quinazolin-4-yl)amino)pyrrolidin-1-yl)cyclohexyl)amino)-1,7,10-trioxo-3,12,15-trioxa-6,9-diazaheptadecan-17-yl)-1-methyl-5-oxo-2-(pyridin-3-yl)pyrrolidine-3-carboxamide]	2.51
CC(C)N(C)[C@@H]1CC[C@H](N2CC[C@H](Nc3ncnc4ccc(C(F)(F)F)cc34)C2=O)[C@H](NC(=O)COCC(=O)N2CCN(C(=O)N3CCN(C(=O)COCCNC(=O)[C@H]4CC(=O)N(C)[C@@H]4c4cccnc4)CC3)CC2)C1 [Example 84, (2S,3S)-N-(2-(2-(4-(4-(2-(2-(((1R,2S,5R)-5-(isopropyl(methyl)amino)-2-((S)-2-oxo-3-((6-(trifluoromethyl)quinazolin-4-yl)amino)pyrrolidin-1-yl)cyclohexyl)amino)-2-oxoethoxy)acetyl)piperazine-1-carbonyl)piperazin-1-yl)-2-oxoethoxy)ethyl)-1-methyl-5-oxo-2-(pyridin-3-yl)pyrrolidine-3-carboxamide]	1
CC(C)N(C)[C@@H]1CC[C@H](N2CC[C@H](Nc3ncnc4ccc(C(F)(F)F)cc34)C2=O)[C@H](NC(=O)C2CCN(C3CCN(C(=O)CCCCCNC(=O)[C@H]4CC(=O)N(C)[C@@H]4c4cccnc4)CC3)CC2)C1 [Example 87, N-((1R,2S,5R)-5-(Isopropyl(methyl)amino)-2-((S)-2-oxo-3-((6-(trifluoromethyl)quinazolin-4-yl)amino)pyrrolidin-1-yl)cyclohexyl)-1'-(6-((2S,3S)-1-methyl-5-oxo-2-(pyridin-3-yl)pyrrolidine-3-carboxamido)hexanoyl)-[1,4'-bipiperidine]-4-carboxamide]	0.398
CC(C)N(C)[C@@H]1CC[C@H](N2CC[C@H](Nc3ncnc4ccc(C(F)(F)F)cc34)C2=O)[C@H](NC(=O)c2cc(OCCOCCOCCOCCOCCNC(=O)[C@H]3CC(=O)N(C)[C@@H]3c3cccnc3)ccn2)C1 [Example 88, N-((1R,2S,5R)-5-(Isopropyl(methyl)amino)-2-((S)-2-oxo-3-((6-(trifluoromethyl)quinazolin-4-yl)amino)pyrrolidin-1-yl)cyclohexyl)-4-((1-((2S,3S)-1-methyl-5-oxo-2-(pyridin-3-yl)pyrrolidin-3-yl)-1-oxo-5,8,11,14-tetraoxa-2-azahexadecan-16-yl)oxy)picolinamide]	7.94
CC(C)N(C)[C@@H]1CC[C@H](N2CC[C@H](Nc3ncnc4ccc(C(F)(F)F)cc34)C2=O)[C@H](NC(=O)c2cc(OCCOCCOCCOCCNC(=O)[C@H]3CC(=O)N(C)[C@@H]3c3cccnc3)ccn2)C1 [Example 89, N-((1R,2S,5R)-5-(Isopropyl(methyl)amino)-2-((S)-2-oxo-3-((6-(trifluoromethyl)quinazolin-4-yl)amino)pyrrolidin-1-yl)cyclohexyl)-4-((1-((2S,3S)-1-methyl-5-oxo-2-(pyridin-3-yl)pyrrolidin-3-yl)-1-oxo-5,8,11-trioxa-2-azatridecan-13-yl)oxy)picolinamide]	25.1
CC(C)N(C)[C@@H]1CC[C@H](N2CC[C@H](Nc3ncnc4ccc(C(F)(F)F)cc34)C2=O)[C@H](NC(=O)c2ccc(OC3CCN(CCOCCOCCNC(=O)[C@H]4CC(=O)N(C)[C@@H]4c4cccnc4)CC3)cc2)C1 [Example 91]	0.794
